From article PMC11401861, “Assessment of the in vitro anti-diabetic activity with molecular dynamic simulations of limonoids isolated from Adalia lemon peels” (Scientific Reports, 2024)
In brackets after ≈: the same amount, converted by molar mass.

Tests used:
[1] = Total antioxidant capacity (TAC), method of Prieto et al.
Description: (§1) All in vitro biological activities of the limonoids-rich extract and the isolated compounds were assayed in triplicate at three different concentrations (50, 100, and 200 µg/mL).
The method proposed by Prieto et al.[30] was used to determine the total antioxidant capacity (TAC) expressed as mg […] equivalent per gram weight, using ascorbic acid at the same concentrations as a standard.

[2] = Iron reducing power (IRP), method of Oyaizu
[3] = DPPH radical scavenging activity; conditions: for IC50 against DPPH radical: Fig. 2a
Description: as §1
The 1,1-Diphenyl-2-picryl-hydrazyl (DPPH) radical scavenging activity was evaluated using the method described by Rahman et al.[32]. Ascorbic acid was used as a positive control at the same concentrations. The inhibition percentage of the DPPH free radical was calculated. The median inhibitory concentration (IC50) of each tested sample was determined by plotting a curve using a series of sample concentrations against the percentage of DPPH inhibition.

[4] = ABTS radical scavenging assay; conditions: for IC50 against ABTS radical: Fig. 2a
Description: as §1
The ABTS scavenging capacities of the samples were compared with that of ascorbic acid. The percent inhibition of the ABTS radical was calculated. The IC50 of each tested sample was determined by plotting a curve using a series of sample concentrations against the percent of ABTS inhibition.

[5] = Nitric oxide (NO) radical scavenging activity (Griess Illosvory reagent); conditions: for IC50 against NO radical: Fig. 2a
Description: as §1
The nitric oxide (NO) radical scavenging activity was estimated by the reaction with Griess Illosvory reagent based on the method proposed by Chakraborthy[34]. The NO scavenging capacities of the samples were compared with that of ascorbic acid. The percent inhibition of the NO radical was calculated. The IC50 of each tested sample was determined by plotting a curve using a series of sample concentrations against the percent of NO inhibition.

α-amylase [6] = assay: α-Amylase enzyme inhibition assay; type: biochemical; conditions: for IC50 against α-amylase: Fig. 2b
Description: as §1
(§2) The IC50 of each tested sample was determined by plotting a curve using a series of sample concentrations against the percent of enzyme inhibition.

α-glucosidase [7] = assay: α-Glucosidase enzyme inhibition assay; type: biochemical; conditions: for IC50 against α-glucosidase: Fig. 2b
Description: as §1, §2

α-amylase [8] = assay: Native electrophoretic α-amylase isoenzyme pattern (PAGE); type: biochemical; conditions: standard enzyme treated with 100 µg/mL
Description: (§3) The relative mobility (Rf), band quantity (Qty) and band percent (B%) of the electrophoretically detected isoenzyme types on the PAGE plate were determined using the Quantity One software program (version 4.6.2). The equation proposed by Nei and Li[39] was used to calculate the percentages of similarity index (SI%) and physiological difference (Diff%).

α-glucosidase [9] = assay: SDS-PAGE electrophoretic α-glucosidase pattern; type: biochemical; conditions: 100 µg/mL
Description: as §3

| Structure (SMILES) | TAC ([1]; sample concentration 50 µg/mL) | TAC ([1]; sample concentration 100 µg/mL) | TAC ([1]; sample concentration 200 µg/mL) | IRP ([2]; sample concentration 50 µg/mL) | IRP ([2]; sample concentration 100 µg/mL) | IRP ([2]; sample concentration 200 µg/mL) | IC50 against DPPH radical [3] | DPPH Inhibition (%) ([3]; sample concentration 50 µg/mL) | DPPH Inhibition (%) ([3]; sample concentration 100 µg/mL) | DPPH Inhibition (%) ([3]; sample concentration 200 µg/mL) | IC50 against ABTS radical [4] | ABTS Inhibition (%) ([4]; sample concentration 50 µg/mL) | ABTS Inhibition (%) ([4]; sample concentration 100 µg/mL) | ABTS Inhibition (%) ([4]; sample concentration 200 µg/mL) | IC50 against NO radical [5] | NO Inhibition (%) ([5]; sample concentration 50 µg/mL) | NO Inhibition (%) ([5]; sample concentration 100 µg/mL) | NO Inhibition (%) ([5]; sample concentration 200 µg/mL) | IC50 against α-amylase (α-amylase [6]) | α-Amylase Inhibition (%) (α-amylase [6]; sample concentration 50 µg/mL) | other results |
| --- | --- | --- | --- | --- | --- | --- | --- | --- | --- | --- | --- | --- | --- | --- | --- | --- | --- | --- | --- | --- | --- |
| CC1(C)OC(=O)C[C@H](O)[C@]2(C)[C@H]3CC[C@@]4(C)[C@H](c5ccoc5)OC(=O)[C@H]5O[C@]54[C@]3(C)C(=O)C[C@@H]12 [Cpd2, deacetylnomilin] | 21.74 ± 0.06 mg gallic acid/g | 38.70 ± 0.10 mg gallic acid/g | 68.88 ± 0.19 mg gallic acid/g | 16.59 ± 0.06 µg/mL | 29.53 ± 0.10 µg/mL | 52.56 ± 0.19 µg/mL | 6.40 ± 0.02 µg/mL (≈ 13.5 µM) | 18.90 ± 0.05% | 33.65 ± 0.09% | 59.90 ± 0.16% | 6.02 ± 0.03 µg/mL (≈ 12.7 µM) | 16.59 ± 0.06% | 29.53 ± 0.10% | 52.56 ± 0.19% | 7.65 ± 0.04 µg/mL (≈ 16.2 µM) | 13.75 ± 0.05% | 24.48 ± 0.09% | 43.58 ± 0.16% | 5.07 ± 0.03 µg/mL (≈ 10.7 µM) | 13.49 ± 0.06% | α-Amylase Inhibition (%) (α-amylase [6]; sample concentration 100 µg/mL): 24.01 ± 0.10%; α-Amylase Inhibition (%) (α-amylase [6]; sample concentration 200 µg/mL): 42.74 ± 0.19%; IC50 against α-glucosidase (α-glucosidase [7]): 3.89 ± 0.03 µg/mL (≈ 8.23 µM); α-Glucosidase Inhibition (%) (α-glucosidase [7]; sample concentration 50 µg/mL): 9.34 ± 0.06%; α-Glucosidase Inhibition (%) (α-glucosidase [7]; sample concentration 100 µg/mL): 16.63 ± 0.10%; α-Glucosidase Inhibition (%) (α-glucosidase [7]; sample concentration 200 µg/mL): 29.59 ± 0.19%; Change in electrophoretic α-amylase isoenzyme pattern (α-amylase [8]): slight changes; Diff% (physiological difference) of electrophoretic α-amylase pattern from the standard enzyme (α-amylase [8]): 33.33%; SI% (similarity index) of electrophoretic α-amylase pattern to the standard enzyme (α-amylase [8]): 66.67%; Diff% (decrease in the quantity of the identified α-glucosidase band) (α-glucosidase [9]): 40.64%; Qty (band quantity) of the α-glucosidase band (α-glucosidase [9]): 11.08; melting point: 254 °C |
| CC1(C)OC2CC(=O)OCC23C1CC(=O)C1(C)C3CC[C@@](C)([C@@H](O[C@@H]2O[C@H](CO)[C@@H](O)[C@H](O)[C@H]2O)c2ccoc2)C12OC2C(=O)O (stereo partly drawn) [Cpd5, limonin 17-O-β-D-glucopyranoside] | 27.45 ± 0.07 mg gallic acid/g | 48.86 ± 0.13 mg gallic acid/g | 86.96 ± 0.23 mg gallic acid/g | 22.30 ± 0.07 µg/mL | 39.69 ± 0.13 µg/mL | 70.65 ± 0.23 µg/mL | 5.07 ± 0.02 µg/mL (≈ 7.79 µM) | 23.87 ± 0.06% | 42.48 ± 0.11% | 75.62 ± 0.20% | 4.48 ± 0.02 µg/mL (≈ 6.89 µM) | 22.30 ± 0.07% | 39.69 ± 0.13% | 70.65 ± 0.23% | 5.62 ± 0.03 µg/mL (≈ 8.64 µM) | 18.72 ± 0.06% | 33.32 ± 0.11% | 59.30 ± 0.20% | 3.56 ± 0.02 µg/mL (≈ 5.47 µM) | 19.20 ± 0.07% | α-Amylase Inhibition (%) (α-amylase [6]; sample concentration 100 µg/mL): 34.17 ± 0.13%; α-Amylase Inhibition (%) (α-amylase [6]; sample concentration 200 µg/mL): 60.82 ± 0.23%; IC50 against α-glucosidase (α-glucosidase [7]): 2.42 ± 0.02 µg/mL (≈ 3.72 µM); α-Glucosidase Inhibition (%) (α-glucosidase [7]; sample concentration 50 µg/mL): 15.05 ± 0.07%; α-Glucosidase Inhibition (%) (α-glucosidase [7]; sample concentration 100 µg/mL): 26.78 ± 0.13%; α-Glucosidase Inhibition (%) (α-glucosidase [7]; sample concentration 200 µg/mL): 47.67 ± 0.23%; Change in electrophoretic α-amylase isoenzyme pattern (α-amylase [8]): severe abnormalities; Diff% (physiological difference) of electrophoretic α-amylase pattern from the standard enzyme (α-amylase [8]): 100.00%; SI% (similarity index) of electrophoretic α-amylase pattern to the standard enzyme (α-amylase [8]): 0.00%; Diff% (decrease in the quantity of the identified α-glucosidase band) (α-glucosidase [9]): 69.27%; Qty (band quantity) of the α-glucosidase band (α-glucosidase [9]): 5.73 |
